Patent publication US20230086007A1, “USE OF DENATONIUM BENZOATE AS A SEED TREATMENT FOR CROPS AS BIRD AND/OR INSECT REPELLENT” (KWS SAAT SE & Co. KGaA, priority 2020, published 2023)
Several values for one entry are separate records, joined by “and”; a condition that tells them apart may be missing. Equal values may be shown once. Entries after “also recorded” stand apart in the source; their conditions may differ.

Columns and labels:
corn seeds = experiment: Phytotoxicity: germination rate (KF) of treated corn seeds; settings: for ΔKF: vs no Bitrex
Method: In order to evaluate the phytotoxicity of different corn seed treatments, safety tests were conducted. Germination rates of corn seeds treated with various concentrations of denatonium benzoate (Bitrex®) [in g per unit, where 1 unit is 50.000 seeds] were counted after five days at 25° C. Cold test germination rates (CT) were counted after 7 days at 10° C. and 5 days at 25° C. The treatments were compared to untreated seeds.
KF=germination rates counted after 5 days at 25° C. and CT=cold test germination rates counted after 7 days at 10° C. and 5 days at 25° C.

[1] = LC-MS-MS determination of Bitrex in hybrid rye seedlings; format: in vivo
Method: Additional experiments in hybrid rye show also excellent systemic uptake and distribution of Bitrex. Seeds of a hybrid rye variety have been treated in application A with KintoPlus 150 ml/100 kg seeds and Bitrex 75 g/100 kg seeds and in application B with KintoPlus 150 ml/100 kg seeds and Bitrex 150 g/100 kg seeds. Seeds have been sown in longitudinal plots of 15 qm in four repetitions. 3 weeks after sowing seedlings have been harvested (40 plants per plot) and leaf material and root tissue have been analyzed using Liquid Chromatography with tandem mass spectrometry (LC-MS-MS) as described above.

[2] = tested on: wireworm of genus Agriotes; experiment: Wireworm field trial in Italy: insect damage (DAMINS); format: in vivo
Source text: Evaluation took place at emergence (E), at V3 stage (=3 leaves unfolded) and at V5 stage (=5 leaves unfolded). The following characteristics have been phenotyped: phytotoxicity (PHYGEN) at stage E, V3 and V5 in % per plot, vigor (VIGOR) at stage E, V3 and V5 in ratings from 1-10 (10 is best), insect damage (DAMINS) at stage V5 in plants per row (left DAMINS column in Table 7) and in % per row (right DAMINS column in Table 7).

crows = experiment: Field trials on efficacy as a bird repellent, corn seed, plant stand counts; format: in vivo, Corvus; settings: 0.4 g/50.000 seeds with Redigo M or Maxim XL, 0.8 g/50.000 seeds stand-alone, plant stand counts 3 weeks after emergence, listed as denatonium benzoate
Source text: To evaluate the efficacy of different substances as a bird repellent, 25 locations throughout Europe have been identified with a potentially high pressure of bird damage. 17 different substances (DSM RD9103 BRP, Chili extract, Black Cumin oil, Yucca extract, Mentha pulegium extract, Aluminium-Ammonium-sulfate, Hops extract, fat encapsulated plant extracts, alginate encapsulated plant extracts, Tefluthrin, Thiram, Ziram, Methiocarb, yellow colour substance, denatonium benzoate, SatecWFO20, Redigo M, Maxim XL) have been chosen to evaluate differences on feeding behavior of crows. Three chemical references have been included in the trial: Mesurol liquid (Active substance Methiocarb), Korit (Active Substance Ziram) and TMTD (Active Substance Thiram). Mesurol liquid (Methiocarb) was the standard bird repellent in the past, with a European expiry date of the 3rd of April 2020. TMTD (Thiram) can be used until 30th of January 2020. Korit (Ziram) expires in 2021.
Denatonium benzoate has been tested in 2 different concentrations: 0.4 g/50.000 seeds in combination with standard fungicides Redigo M and Maxim XL and 0.8 g/50.000 seeds as a stand-alone. […]
3 weeks after emergence, 9 locations with bird damage have been identified. Plant stand counts have been assessed and summarized.

[3] = corn Amavit, chemical no, Bitrex 0.2 g/u
[4] = corn Amavit, chemical no, Bitrex 0.5 g/u
[5] = corn Amavit, chemical no, Bitrex 1.0 g/u
[6] = corn Amavit, chemical no, Bitrex 2.0 g/u
[7] = corn Amavit, chemical no, Bitrex 5.0 g/u
[8] = corn Amavit, with MaximXL, Bitrex 0.2 g/u
[9] = corn Amavit, with MaximXL, Bitrex 0.5 g/u
[10] = corn Amavit, with MaximXL, Bitrex 1.0 g/u
[11] = corn Amavit, with MaximXL, Bitrex 2.0 g/u
[12] = corn Amavit, with MaximXL, Bitrex 5.0 g/u
[13] = corn Amavit, with RedigoM, Bitrex 0.2 g/u
[14] = corn Amavit, with RedigoM, Bitrex 0.5 g/u
[15] = corn Amavit, with RedigoM, Bitrex 1.0 g/u
[16] = corn Amavit, with RedigoM, Bitrex 2.0 g/u
[17] = corn Amavit, with RedigoM, Bitrex 5.0 g/u
[18] = corn KXB6432, chemical no, Bitrex 0.2 g/u
[19] = corn KXB6432, chemical no, Bitrex 0.5 g/u
[20] = corn KXB6432, chemical no, Bitrex 1.0 g/u
[21] = corn KXB6432, chemical no, Bitrex 2.0 g/u
[22] = corn KXB6432, chemical no, Bitrex 5.0 g/u
[23] = corn KXB6432, with MaximXL, Bitrex 0.2 g/u
[24] = corn KXB6432, with MaximXL, Bitrex 0.5 g/u
[25] = corn KXB6432, with MaximXL, Bitrex 1.0 g/u
[26] = corn KXB6432, with MaximXL, Bitrex 2.0 g/u
[27] = corn KXB6432, with MaximXL, Bitrex 5.0 g/u
[28] = corn KXB6432, with RedigoM, Bitrex 0.2 g/u
[29] = corn KXB6432, with RedigoM, Bitrex 0.5 g/u
[30] = corn KXB6432, with RedigoM, Bitrex 1.0 g/u
[31] = corn KXB6432, with RedigoM, Bitrex 2.0 g/u
[32] = corn KXB6432, with RedigoM, Bitrex 5.0 g/u
[33] = ø of varieties and chemicals, Bitrex 0.2 g/u
[34] = ø of varieties and chemicals, Bitrex 0.5 g/u
[35] = ø of varieties and chemicals, Bitrex 1.0 g/u
[36] = ø of varieties and chemicals, Bitrex 2.0 g/u
[37] = ø of varieties and chemicals, Bitrex 5.0 g/u
[38] = ø of varieties, chemical no, Bitrex 0.2 g/u
[39] = ø of varieties, chemical no, Bitrex 0.5 g/u
[40] = ø of varieties, chemical no, Bitrex 1.0 g/u
[41] = ø of varieties, chemical no, Bitrex 2.0 g/u
[42] = ø of varieties, chemical no, Bitrex 5.0 g/u
[43] = ø of varieties, with MaximXL, Bitrex 0.2 g/u
[44] = ø of varieties, with MaximXL, Bitrex 0.5 g/u
[45] = ø of varieties, with MaximXL, Bitrex 1.0 g/u
[46] = ø of varieties, with MaximXL, Bitrex 2.0 g/u
[47] = ø of varieties, with MaximXL, Bitrex 5.0 g/u
[48] = ø of varieties, with RedigoM, Bitrex 0.2 g/u
[49] = ø of varieties, with RedigoM, Bitrex 0.5 g/u
[50] = ø of varieties, with RedigoM, Bitrex 1.0 g/u
[51] = ø of varieties, with RedigoM, Bitrex 2.0 g/u
[52] = ø of varieties, with RedigoM, Bitrex 5.0 g/u

## CC[N+](CC)(CC(=O)Nc1c(C)cccc1C)Cc1ccccc1.O=C([O-])c1ccccc1 [Bitrex, N-Benzyl-2-(2,6-dimethylanilino)-N, N-diethyl-2-oxoethan-1-aminium benzoate]
Corn seeds; [3]
  KF germination rate, 5 days at 25° C.: 98.0%
  ΔKF: 0.0%
Corn seeds; [4]
  KF germination rate, 5 days at 25° C.: 96.5%
  ΔKF: −1.5%
Corn seeds; [5]
  KF germination rate, 5 days at 25° C.: 97.5%
  ΔKF: −0.5%
Corn seeds; [6]
  KF germination rate, 5 days at 25° C.: 97.0%
  ΔKF: −1.0%
Corn seeds; [7]
  KF germination rate, 5 days at 25° C.: 98.0%
  ΔKF: 0.0%
Corn seeds; [8]
  KF germination rate, 5 days at 25° C.: 98.0%
  ΔKF: 1.5%
Corn seeds; [9]
  KF germination rate, 5 days at 25° C.: 98.0%
  ΔKF: 1.5%
Corn seeds; [10]
  KF germination rate, 5 days at 25° C.: 96.5%
  ΔKF: 0.0%
Corn seeds; [11]
  KF germination rate, 5 days at 25° C.: 95.5%
  ΔKF: −1.0%
Corn seeds; [12]
  KF germination rate, 5 days at 25° C.: 97.5%
  ΔKF: 1.0%
Corn seeds; [13]
  KF germination rate, 5 days at 25° C.: 100.0%
  ΔKF: 2.0%
Corn seeds; [14]
  KF germination rate, 5 days at 25° C.: 97.5%
  ΔKF: −0.5%
Corn seeds; [15]
  KF germination rate, 5 days at 25° C.: 96.0%
  ΔKF: −2.0%
Corn seeds; [16]
  KF germination rate, 5 days at 25° C.: 96.5%
  ΔKF: −1.5%
Corn seeds; [17]
  KF germination rate, 5 days at 25° C.: 99.5%
  ΔKF: 1.5%
Corn seeds; [18]
  KF germination rate, 5 days at 25° C.: 92.5%
  ΔKF: −2.0%
Corn seeds; [19]
  KF germination rate, 5 days at 25° C.: 96.5%
  ΔKF: 2.0%
Corn seeds; [20]
  KF germination rate, 5 days at 25° C.: 96.5%
  ΔKF: 2.0%
Corn seeds; [21]
  KF germination rate, 5 days at 25° C.: 96.0%
  ΔKF: 1.5%
Corn seeds; [22]
  KF germination rate, 5 days at 25° C.: 95.5%
  ΔKF: 1.0%
Corn seeds; [23]
  KF germination rate, 5 days at 25° C.: 98.5%
  ΔKF: 0.0%
Corn seeds; [24]
  KF germination rate, 5 days at 25° C.: 99.0%
  ΔKF: 0.5%
Corn seeds; [25]
  KF germination rate, 5 days at 25° C.: 97.5%
  ΔKF: −1.0%
Corn seeds; [26]
  KF germination rate, 5 days at 25° C.: 98.0%
  ΔKF: −0.5%
Corn seeds; [27]
  KF germination rate, 5 days at 25° C.: 97.5%
  ΔKF: −1.0%
Corn seeds; [28]
  KF germination rate, 5 days at 25° C.: 94.5%
  ΔKF: 0.0%
Corn seeds; [29]
  KF germination rate, 5 days at 25° C.: 95.5%
  ΔKF: 1.0%
Corn seeds; [30]
  KF germination rate, 5 days at 25° C.: 96.0%
  ΔKF: 1.5%
Corn seeds; [31]
  KF germination rate, 5 days at 25° C.: 95.5%
  ΔKF: 1.0%
Corn seeds; [32]
  KF germination rate, 5 days at 25° C.: 97.0%
  ΔKF: 2.5%
Corn seeds; [33]
  ΔKF: 0.3%
  KF germination rate, 5 days at 25° C.: 96.9%
Corn seeds; [34]
  ΔKF: 0.5%
  KF germination rate, 5 days at 25° C.: 97.2%
Corn seeds; [35]
  ΔKF: 0.0%
  KF germination rate, 5 days at 25° C.: 96.7%
Corn seeds; [36]
  ΔKF: −0.2%
  KF germination rate, 5 days at 25° C.: 96.4%
Corn seeds; [37]
  ΔKF: 0.8%
  KF germination rate, 5 days at 25° C.: 97.5%
Corn seeds; [38]
  ΔKF: −1.0%
  KF germination rate, 5 days at 25° C.: 95.3%
Corn seeds; [39]
  ΔKF: 0.3%
  KF germination rate, 5 days at 25° C.: 96.5%
Corn seeds; [40]
  ΔKF: 0.8%
  KF germination rate, 5 days at 25° C.: 97.0%
Corn seeds; [41]
  ΔKF: 0.3%
  KF germination rate, 5 days at 25° C.: 96.5%
Corn seeds; [42]
  ΔKF: 0.5%
  KF germination rate, 5 days at 25° C.: 96.8%
Corn seeds; [43]
  ΔKF: 0.7%
  KF germination rate, 5 days at 25° C.: 98.3%
Corn seeds; [44]
  ΔKF: 1.0%
  KF germination rate, 5 days at 25° C.: 98.5%
Corn seeds; [45]
  ΔKF: −0.5%
  KF germination rate, 5 days at 25° C.: 97.0%
Corn seeds; [46]
  ΔKF: −0.7%
  KF germination rate, 5 days at 25° C.: 96.8%
Corn seeds; [47]
  ΔKF: 0.0%
  KF germination rate, 5 days at 25° C.: 97.5%
Corn seeds; [48]
  ΔKF: 1.0%
  KF germination rate, 5 days at 25° C.: 97.3%
Corn seeds; [49]
  ΔKF: 0.3%
  KF germination rate, 5 days at 25° C.: 96.5%
Corn seeds; [50]
  ΔKF: −0.2%
  KF germination rate, 5 days at 25° C.: 96.0%
Corn seeds; [51]
  ΔKF: −0.2%
  KF germination rate, 5 days at 25° C.: 96.0%
Corn seeds; [52]
  ΔKF: 2.0%
  KF germination rate, 5 days at 25° C.: 98.3%
[1]; hybrid rye
  concentration of Bitrex in kernels: up to 460,000 ng/g
[1]; hybrid rye seedlings 3 weeks after sowing, root, application B: KintoPlus 150 ml/100 kg seeds and Bitrex 150 g/100 kg seeds
  Mean Bitrex concentration: 21169.7 ng/g and 25378.0 ng/g and 18336.0 ng/g and 15826.3 ng/g
[1]; hybrid rye, kernel, application A: KintoPlus 150 ml/100 kg seeds and Bitrex 75 g/100 kg seeds
  Mean Bitrex concentration: 460473.8 ng/g
[2]; 5 g Bitrex per 50,000 seeds
  DAMINS insect damage, stage V5: 6.8 plants per row and 5.62 % per row
[2]; 10 g Bitrex per 50,000 seeds
  DAMINS insect damage, stage V5: 7.3 plants per row and 6.07 % per row
[2]; 20 g Bitrex per 50,000 seeds
  DAMINS insect damage, stage V5: 5.8 plants per row and 4.79 % per row
crows
  efficiency as corvid repellent for corn: excellent effect; also recorded: comparable or even better than the best bird repellents like Thiram, Korit and Mesurol
